# Values joined by “and” are separate entries in the source; they are usually repeats but may differ in a detail not shown here. Identical values can stand only once. Like-named read-outs stand apart in the source and are kept apart here. Ends that are not written are not given here.
# Legend:
# Type in all cases: cell-based
# [1] = test system: Bacillus subtilis (ATCC 23857)
# Procedure, shortened: (§1)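 Broth microdilution in Müller-Hinton, 1.3–1.5 × 10^4 bacteria/ml final, 24 h at 35°C with hourly OD595. MIC is the lowest concentration giving >90% inhibition versus water growth controls; extracts/eluates tested 5.0–0.005 mg/ml, peptides 100–0.1 μM in two-fold dilutions, HPLC fractions undiluted.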
# [2] = test system: Escherichia coli #1 (ATCC 25922)
# Procedure, shortened: as §1
# [3] = test system: human red blood cells; test: Haemolytic activity assay; settings: human red blood cells in PBS, 1 h at 37°C, absorbance at 550 nm, 0.05% Triton X-100 = 100%, duplicates
# Description: Synthesised peptide analogues of EeCentrocin 1 and 2 were screened for eukaryotic cell-toxicity with a haemolytic activity assay using human red blood cells as described previously. The assay was performed on 96-well U-shaped microtiter plates (Nagle Nunc) with 50 μl peptide sample, 40 μl phosphate-buffered saline (PBS) and 10 μl red blood cells. The final peptide concentrations ranged from 100 to 0.1 μM in two-fold serial dilutions. After one hour of incubation at 37°C in a shaker, the plate was centrifuged at 200 g for 5 min and the supernatants (60 μl) were carefully transferred to a new flat-bottomed polycarbonate microtiter plate (Nagle Nunc) and absorbance at 550 nm was measured on a Synergy H1 multimode reader (BioTek, VT, USA). Cell suspension added 0.05% Triton X-100 (Sigma-Aldrich, MO, USA) in PBS served as positive (100% haemolysis) control and cell suspension added PBS served as negative (0% haemolysis) control. The percent haemolysis was calculated using the formula [(Asample-Abaseline)/(Atriton-Abaseline)]×100. The experiment was performed in duplicates.
sequence,measurement,setting,value
WGHKLRSSWNKVKHAVKKGAGYASGACRVLGH [EeCentrocin 2 HC],MIC B. subtilis,"[1]; MH medium, 24 h at 35°C, OD595, lowest concentration with >90% inhibition, value of Table 2, synthetic peptides in triplicates",6.25 µM
same,MIC raw data B. subtilis,[1]; parallel 1 of three,6.25 µM
same,MIC raw data B. subtilis,[1]; parallel 2 of three,3.13 µM
same,MIC raw data B. subtilis,[1]; parallel 3 of three,3.13 µM
same,MIC E. coli #1,"[2]; MH medium, 24 h at 35°C, OD595, >90% inhibition, value of Table 2, native peptides run once, synthetic in triplicates",1.56 µM
same,MIC raw data E. coli #1,[2]; parallel 1 of three,1.56 µM
same,MIC raw data E. coli #1,[2]; parallel 2 of three,0.78 µM
same,MIC raw data E. coli #1,[2]; parallel 3 of three,0.78 µM
same,% haemolysis,[3]; 25.0 μM,11.7%
same,% haemolysis,[3]; 50.0 μM,18.9%
same,% haemolysis,[3]; 100 μM,56.3% and 56.4%

# Reference: publication PMC4805251, “Novel Antimicrobial Peptides EeCentrocins 1, 2 and EeStrongylocin 2 from the Edible Sea Urchin Echinus esculentus Have 6-Br-Trp Post-Translational Modifications” (PLoS ONE, 2016)
